Reference: patent publication USRE39155E1, “Use of 1,3-oxathiolane nucleoside analogues in the treatment of hepatitis B” (Shire BioChem Inc., priority 1991, dated 2006)
In brackets after ≈: the same amount, converted by molar mass. Read-outs that look alike come from different tables or passages of the source.

What was measured:
[1] = tested on: hepatitis B virus; test: General statement of activity against hepatitis B virus in vitro and in vivo
[2] = tested on: Duck hepatitis B virus; test: Activity against Duck hepatitis B virus in primary duck hepatocyte cultures, DHBV DNA dot-blot; format: cell-based; conditions: DHBV-infected primary duck hepatocytes
Description: The DNA from DHBV-infected hepatocytes was extracted and spotted onto a nitrocellular filter. […] The DNA was extracted from 6-cm cell culture dishes at various times post-plating. In the VC group, cells were harvested at 2, 6, 8, 10, 14, 18 and 20 days. Duplicate samples were spotted for days 14, 18 and 20. […] Drugs were added to the culture at 2 days post-plating and maintained throughout media changes every 2 days. The total intracellular DNA was extracted from cells using the standard phenol extraction method. […] The pellet of nucleic acid was washed with ethanol and dried. The DNA was dissolved in a solution containing 12.5 mM Tris HCl, pH 7.5, 10 mM EDTA, 30% glycerol and 0.01% bromophenol blue.

[3] = tested on: human hepatitis B virus; test: 2.2.15 cells (Hep G2 transfected with HBV genomic DNA), extracellular HBV DNA dot-blot after 10 day treatment; format: cell-based
Description: (ii) The method used for this test is described in detail in Korba et al. Antiviral Research 15, 217-228, 1992, and summarised below.
Hep G2 cells transfected with human hepatitis B virus genomic DNA (2.2.15 cells) were grown and maintained in RPMI-1640 culture medium containing 5% foetal bovine serum, 2 mM glutamine and 50 μg/ml gentamicin sulphate, and checked routinely for G418 resistance. Cultures of 2.2.15 cells were grown to confluence in 24 well tissue culture plates and maintained for 2 to 3 days in that condition prior to drug treatment.
These solutions were diluted as needed in culture medium.
The culture medium on the confluent cells was changed 24 hours prior to exposure to test compounds. During the 10 day treatment the culture medium was changed daily. After 10 days of treatment the culture medium was collected and frozen at −70° C. for HBV DNA analysis.
To analyse extracellular HBV DNA, 0.2 ml samples of culture medium were incubated for 20 minutes at 25° C. in 1M NaOH/10X SSC (1X SSC is 0.15M NaCl/0.015 M Sodium Citrate, pH 7.2) and then applied to nitrocellulose membranes presoaked in 20X SSC using a blotting apparatus. Samples were neutralised by washing twice with 0.5 ml of 1M Tris, pH 7.2/2M NaCl and once with 5 ml of 20X SSC. Filters were then rinsed in 2X SSC and baked at 80° C. for 1 hour under vacuum.
A purified 3.2 kb EcoRl HBV DNA fragment was labelled with [^32P]dCTP by nick translation and used as a probe to detect HBV DNA on the dot-blot by DNA hybridisation. After washing, the hybridised blot was dried and ^32P was quantified using an Ambis beta scanner.

[4] = Duck hepatitis B virus, Hepatocyte, read-out: IC50
[5] = 2.2.15 cells, 10 day treatment, extracellular HBV DNA, read-out: IC50

Nc1ccn(C2CSC(CO)O2)c(=O)n1 (racemic) [Racemate, cis-4-amino-1-(2-hydroxymethyl-1,3-oxathiolan-5-yl-(1H)-pyrimidin-2-one]
activity against the hepatitis B virus ([1]; listed as BCH-189): active both in vitro and in vivo
activity against the hepatitis B virus ([1]; listed as compound of formula (I)): inhibit the hepatitis B virus both in vitro and in vivo

Nc1ccn([C@H]2CS[C@@H](CO)O2)c(=O)n1 (stereo in doubt) [Compound 3TC, (2R,cis)-4-amino-1-(2-hydroxymethyl-1,3-oxathiolan-5-yl)-(1H)-pyrimidin-2-one]
IC50 [2, 4]: < 1 µg/mL

Nc1ccn([C@@H]2CS[C@H](CO)O2)c(=O)n1 [Compound 3TC, (2R,cis)-4-amino-1-(2-hydroxymethyl-1,3-oxathiolan-5-yl)-(1H)-pyrimidin-2-one]
activity against the hepatitis B virus [1]: active both in vitro and in vivo
IC50 ([3]; Hepatitis B virus, HepG2, 240 h, 2.2.15 cells, 10 day treatment, extracellular HBV DNA, read-out: IC50): 5.6 µM

Nc1ncnc2c1ncn2[C@@H]1O[C@H](COP(=O)(O)O)[C@@H](O)[C@@H]1O [araAMP, adenosylarabinoside-5′-monophosphate]
IC50 [3, 5]: 2.9 µM

Nc1nc2c(ncn2[C@H]2C[C@@H](CO)[C@H](O)C2)c(=O)[nH]1 [cdG, carbocyclic deoxyguanosine]
IC50 [3, 5]: 0.034 µM

Nc1ccn([C@H]2CC[C@@H](CO)O2)c(=O)n1 [ddC, 2′,3′-dideoxycytidine]
IC50 ([3]; Hepatitis B virus, HepG2, 240 h, read-out: IC50 μM): 2.2 µM

Nc1nc(N)c2ncn([C@H]3CC[C@@H](CO)O3)c2n1 [ddDAPR, 2,6-diaminopurine-9-β-D-2′,3′-dideoxyribofuranoside]
IC50 [2]: 0.07 µg/mL (≈ 0.28 µM)

Nc1nc2c(ncn2[C@H]2CC[C@@H](CO)O2)c(=O)[nH]1 [ddG, 2′,3′-dideoxy-guanosine]
IC50 [2, 4]: 0.07 µg/mL (≈ 0.279 µM)
